Reference: article PMC8151276, “An Integrated Approach toward NanoBRET Tracers for Analysis of GPCR Ligand Engagement” (Molecules, 2021)

What was measured:
Assay type in all cases: binding
[1] = target: T1, CXCR2 (Homo sapiens, UniProt P25025); assay: NanoBRET screen HiBiT-CXCR2 in HEK293; details: CXCR2
T1 construct: purchased Promega (in-house HiBiT-GPCR construct library, NanoBRET)
T1 sequence (P25025 1-360): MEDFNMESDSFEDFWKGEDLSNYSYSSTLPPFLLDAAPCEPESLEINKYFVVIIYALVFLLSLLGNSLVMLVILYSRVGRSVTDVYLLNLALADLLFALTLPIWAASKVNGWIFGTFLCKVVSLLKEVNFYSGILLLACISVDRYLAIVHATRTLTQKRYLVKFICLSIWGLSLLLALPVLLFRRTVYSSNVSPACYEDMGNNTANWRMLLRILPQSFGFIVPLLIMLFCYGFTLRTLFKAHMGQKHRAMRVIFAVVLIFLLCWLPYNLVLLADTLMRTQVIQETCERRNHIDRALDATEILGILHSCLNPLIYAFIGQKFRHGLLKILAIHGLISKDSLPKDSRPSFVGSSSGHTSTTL
Method: (§1) Each tracer candidate was screened across the entire library of HiBiT-GPCR constructs using NanoBRET as the detection modality. As depicted in Figure 4A, the specificity of interactions was evaluated through decrease in BRET due to competitive displacement of a bound tracer by excess parental compound. Each tracer was analyzed for binding to each HiBiT-GPCR fusion in the absence and in the presence of competing parental compound. Briefly, HEK293 cells were transfected with HiBiT-GPCR constructs diluted into promoterless DNA to reduce expression and maximize translocation to the cell surface. Each tracer candidate was then screened at concentrations of 1 μM and 0.1 μM across cells expressing these fusions. Cells were treated for 1.5 h with tracer either alone or in the presence of 20 μM competing parental compound (i.e., control). BRET was measured upon addition of purified LgBiT and subsequent complementation with HiBiT genetically fused to a GPCR. The specificity of interactions was assessed through a decrease in BRET signal due to competitive displacement of the bound tracer. To further gauge the robustness of these interactions, the fold response over the control (i.e., BRETtracer/BRETcontrol) was calculated. We chose a 1.5-fold response, which translates to ≥7-fold signal over noise as the minimal threshold required to score an interaction as positive. […]. Below we highlight the screening results obtained for our exemplary fluorescent tracers based on Clozapine, Amitriptyline and AZD1283.
(§2) HiBiT-GPCR DNA constructs were diluted in 10 mM Tris pH 8 to a final concentration of 0.01 μg/μL, arrayed in 96-well plates and stored at −20 °C. For transfection, HEK293 cells were suspended in Opti-MEM (without phenol red) supplemented with 2% fetal bovine serum (Seradigm) and 100 units/mL penicillin–streptomycin (Gibco) at a final concentration of 220,000 cells/mL and dispensed into white 96-well plates at 90 μL/well. Subsequent transfections and screens were carried using an Agilent Bravo Automated Liquid Handling Platform. First, the 96-well HiBiT DNA arrays were diluted 25-fold in Opti-MEM (without serum or phenol red) to a final concentration of 0.0004 μg/μL and 20 μL of the diluted DNAs were transferred into new 96-well plates. Next, promoterless carrier DNA (1 μg/μL) was diluted 25-fold (0.04 μg/μL) and then dispensed into the diluted arrays at 20 μL/well. Following brief mixing, Viafect transfection reagent (Promega) diluted 16-fold into Opti-MEM was dispensed into the plates at 40 μL/well. After mixing by pipetting, plates were incubated for 10 min on the pipetting station deck. The DNA-transfection reagent complexes were then added to plates containing cells. To facilitate the screen, 10 μL of DNA-transfection reagent complexes were added in duplicates to the top 4 and bottom 4 rows, resulting in two identical 48-well arrays per plate. Plates with transfected cells were incubated for 18–20 h at 37 °C/5% CO2. A screen of each tracer across the entire library using two different concentrations requires duplicate plates of transfected cells. Depending on the number of tracers being screened, transfections can be scaled up using the same ratios. The next day, for each tracer, four 20× screening solutions in tracer dilution buffer (Promega) were prepared: two duplicates at final concentration of 20 μM and two duplicates at a final concentration of 2 μM. A competing unmodified compound was added to one of each duplicate at a final concentration of 400 μM. The four resulting solutions were diluted 4-fold in Opti-MEM without serum or phenol red to generate 5× solutions (5 µM and 0.5 µM tracer +/− 100 μM competing compound). To screen the library, a BioTek MultiFlo FX liquid dispenser was used to dispense 22.5 µL of tracer solution to the top 4 rows and 22.5 µL tracer + competing compound solution to the 4 bottom rows. Plates were briefly mixed on an orbital shaker and incubated for 1.5 h at room temperature. […]

[2] = target: T2, C5AR2 (Homo sapiens, UniProt Q9P296); assay: NanoBRET screen HiBiT-C5AR2 in HEK293; details: C5AR2
T2 construct: purchased Promega (in-house HiBiT-GPCR construct library, NanoBRET)
T2 sequence (Q9P296 whole entry): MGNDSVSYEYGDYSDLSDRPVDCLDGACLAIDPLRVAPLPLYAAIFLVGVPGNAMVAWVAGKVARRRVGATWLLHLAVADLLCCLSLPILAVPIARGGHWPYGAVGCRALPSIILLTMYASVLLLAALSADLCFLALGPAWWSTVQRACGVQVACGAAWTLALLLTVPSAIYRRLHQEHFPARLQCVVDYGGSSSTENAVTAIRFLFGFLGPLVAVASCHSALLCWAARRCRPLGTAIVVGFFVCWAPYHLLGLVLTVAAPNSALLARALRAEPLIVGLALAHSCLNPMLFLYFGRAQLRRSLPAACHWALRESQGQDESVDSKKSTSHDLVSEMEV
Method: as §1, §2

[3] = target: T3, FZD1 (Homo sapiens, UniProt Q9UP38); assay: NanoBRET screen HiBiT-FZD1 in HEK293; details: FZD1
T3 construct: purchased Promega (in-house HiBiT-GPCR construct library, NanoBRET)
T3 sequence (Q9UP38 70-647): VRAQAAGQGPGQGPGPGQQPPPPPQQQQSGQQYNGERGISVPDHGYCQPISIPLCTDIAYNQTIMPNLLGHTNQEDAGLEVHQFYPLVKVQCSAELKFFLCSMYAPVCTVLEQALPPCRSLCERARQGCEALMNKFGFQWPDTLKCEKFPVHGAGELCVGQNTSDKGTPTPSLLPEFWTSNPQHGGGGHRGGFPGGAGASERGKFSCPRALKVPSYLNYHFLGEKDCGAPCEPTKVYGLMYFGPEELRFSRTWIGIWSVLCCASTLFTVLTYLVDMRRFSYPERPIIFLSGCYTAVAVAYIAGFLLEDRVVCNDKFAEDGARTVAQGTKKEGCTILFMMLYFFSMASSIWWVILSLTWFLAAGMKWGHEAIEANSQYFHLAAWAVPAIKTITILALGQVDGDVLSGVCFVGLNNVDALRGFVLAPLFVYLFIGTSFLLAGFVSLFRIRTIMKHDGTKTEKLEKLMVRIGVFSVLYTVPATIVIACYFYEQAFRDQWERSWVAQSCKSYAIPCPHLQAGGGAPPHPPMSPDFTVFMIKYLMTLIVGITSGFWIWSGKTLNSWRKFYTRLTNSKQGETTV
Method: as §1, §2

[4] = target: T4, HTR4 (Homo sapiens, UniProt Q13639); assay: NanoBRET screen HiBiT-HTR4 in HEK293; details: HTR4
T4 construct: purchased Promega (in-house HiBiT-GPCR construct library, NanoBRET)
T4 sequence (Q13639 whole entry): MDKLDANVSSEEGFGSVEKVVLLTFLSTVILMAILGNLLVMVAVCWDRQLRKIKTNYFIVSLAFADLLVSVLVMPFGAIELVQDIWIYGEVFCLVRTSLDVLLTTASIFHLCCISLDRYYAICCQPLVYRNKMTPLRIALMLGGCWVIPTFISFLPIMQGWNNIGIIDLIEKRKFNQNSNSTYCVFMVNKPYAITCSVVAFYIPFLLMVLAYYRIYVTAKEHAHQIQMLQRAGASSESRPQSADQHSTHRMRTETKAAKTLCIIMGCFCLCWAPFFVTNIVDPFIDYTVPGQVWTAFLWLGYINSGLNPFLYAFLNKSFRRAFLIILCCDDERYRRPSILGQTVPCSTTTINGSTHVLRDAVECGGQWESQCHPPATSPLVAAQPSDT
Method: as §1, §2

[5] = target: T5, TACR3 (Homo sapiens, UniProt P29371); assay: NanoBRET screen HiBiT-TACR3 in HEK293; details: TACR3
T5 construct: purchased Promega (in-house HiBiT-GPCR construct library, NanoBRET)
T5 sequence (P29371 1-465): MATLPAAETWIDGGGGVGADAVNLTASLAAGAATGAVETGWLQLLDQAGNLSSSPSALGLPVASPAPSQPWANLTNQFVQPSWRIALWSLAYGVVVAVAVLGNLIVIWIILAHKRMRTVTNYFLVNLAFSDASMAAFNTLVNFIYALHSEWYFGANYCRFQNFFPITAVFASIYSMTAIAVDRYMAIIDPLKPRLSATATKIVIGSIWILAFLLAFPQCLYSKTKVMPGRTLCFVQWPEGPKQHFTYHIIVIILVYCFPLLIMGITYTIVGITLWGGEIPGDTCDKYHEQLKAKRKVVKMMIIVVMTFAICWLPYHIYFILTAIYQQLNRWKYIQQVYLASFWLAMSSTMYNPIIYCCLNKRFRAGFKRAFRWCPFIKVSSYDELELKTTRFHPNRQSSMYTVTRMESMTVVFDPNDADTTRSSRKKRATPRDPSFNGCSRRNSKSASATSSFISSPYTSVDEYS
Method: as §1, §2

CCCn1c(=O)c2[nH]c(-c3ccc(OCC(=O)NCCNC(=O)CCOCCNC(=O)c4ccc(CNC(=O)CCc5ccc6n5[B-](F)(F)[N+]5=C(c7ccc[nH]7)C=CC5=C6)cc4)cc3)nc2n(CCC)c1=O [XAC-3-NB590]
NanoBRET Fold Response ([1]; tracer 0.1μM): 1.22 | NanoBRET Fold Response ([1]; tracer 1μM): 0.70 | NanoBRET Fold Response ([2]; tracer 0.1μM): 1.02 | NanoBRET Fold Response ([2]; tracer 1μM): 1.01 | NanoBRET Fold Response ([3]; tracer 0.1μM): 0.78 | NanoBRET Fold Response ([3]; tracer 1μM): 1.33 | NanoBRET Fold Response ([4]; tracer 0.1μM): 1.03 | NanoBRET Fold Response ([4]; tracer 1μM): 1.09 | NanoBRET Fold Response ([5]; tracer 0.1μM): 1.06 | NanoBRET Fold Response ([5]; tracer 1μM): 1.01
